# Results: paper PMC8881512 (Nature Communications, 2022)
# Values joined by “and” are separate entries in the source; they are usually repeats but may differ in a detail not shown here. Equal values may be shown once.
# Columns and labels:
# [1] = tested on: MCF-7 cells; assay: Cell proliferation by cell counting, MCF-7; type: cell-based, human; conditions: for Fold change of cell proliferation: 4OHT (0.5 μM), Fig.6f; for Cell proliferation (cell counting): 1 μM Entinostat for 4 days, Fig.1p
# Experimental: Cell proliferation rates were determined by automated cell counter. In brief, cells were plated at density of 0.1 million cells per well in six-well plate. Cell numbers were counted by the indicated time point as stated in the figure legends.
# [2] = tested on: MCF-7 cells; assay: Colony-formation assay, MCF-7 (wild-type and ESR1 knock-in); type: cell-based, human; conditions: for Relative colony formation: 1 μM 4OHT, 0.2 μM Fulvestrant, 2 μM VT02956, 2 μM VT02484, Fig.6g
# Experimental: […] The drugs were refreshed every 2–4 days. The colonies were then fixed with 4% paraformaldehyde for 15 min and stained with 0.1% crystal violet in 20% methanol solution for quantification.
# [3] = tested on: T47D cells; assay: Colony-formation assay, T47D (wild-type and ESR1 knock-in); type: cell-based; conditions: 1 μM 4OHT, 0.2 μM Fulvestrant, 2 μM VT02956, 2 μM VT02484, 14 days, Fig.6h
# Experimental: For colony formation, cells were plated into 12-well plate with a constant density at the start date of treatment in triplicate with the indicated compounds and further cultured for 10 days (MCF-7) or 14 days (T47D). The drugs were refreshed every 2–4 days. The colonies were then fixed with 4% paraformaldehyde for 15 min and stained with 0.1% crystal violet in 20% methanol solution for quantification.
# [4] = tested on: YAP/TAZ target, ESR1 and ERα target gene mRNA in BTO-02; assay: qPCR gene expression in breast tumour organoids BTO-02; type: cell-based, human; conditions: BTO-02 starved for E2 for 3 days, then 100 nM E2 for 2 hours; Fig.s6o;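 also: relative mRNA abundance computed by the ΔCt approach from SYBR-based real-time qPCR, with GAPDH as internal housekeeping reference for normalisation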
# [5] = tested on: VGLL3, ESR1, YAP/TAZ target and ERα target gene mRNA in MCF-7 cells; assay: qPCR gene expression in MCF-7 cells; conditions: 1 μM Entinostat for 24 h, Fig.1o;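 also: SYBR Green real-time PCR, mRNA abundance computed by the ΔCt approach with GAPDH transcript as the internal normalisation control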
# [6] = tested on: ER+ breast tumour organoids (BTO-02); assay: 3D organoids drug response assay (CellTiter-Glo 3D); type: cell-based, human; conditions: BTO-02; 12 days treatment with 0.2 µM Fulvestrant or 1 µM Tamoxifen; Fig.s6p
# Experimental: Breast tumour organoids were dissociated into single cells using TrypLE Express and counted with automated cell counter. Subsequently, 1000 cells were mixed in 10 μl BME type 2, seeded onto 96-well plate in triplicate and overlaid with 100 μl BC organoid medium (BOM) after BME gelation. Three days after organoids sphere formation, medium was removed and replaced by 100 μl of complete medium containing VT02956 (0, 0.04, 0.2, 1, 5 μM) or vehicle (DMSO). The drug-containing medium was refreshed every 3 days for additional 3–4 times. At the end of the treatment, the effect of the drugs on the tumour organoids, in terms of the organoids cell growth, was assayed with CellTiter-Glo 3D (Promega) according to the manufacturer’s instructions and were normalised to vehicle controls (0.5% DMSO content). The IC50 values was calculated in GraphPad Prism 8.
# [7] = tested on: contact between ESR1 promoter and super enhancer locus; assay: 3C library targeted bait qPCR (3C-qPCR); type: cell-based, human; conditions: MCF-7 LATS1/2 dKO + 1 µM VT107 for 2 days; relative to Parental; Fig.s5f
# Experimental: The 3C templates were generated by combining the protocols of 3C[40] with in-situ Hi-C[41]. Briefly, 10 million cells were collected, and the cell pellet was resuspended in DPBS with formaldehyde added at a final concentration of 1% at room temperature for 10 min. […] The nuclei were further washed once by in-situ lysis buffer and resuspended in 50 μl 0.5% SDS solution at 62 °C for exactly 10 min. The SDS was then neutralised by adding 145 μl H2O and 25 μl 10% Triton X-100 at 37 °C for 15 min. After adding 100 U DpnII (NEB, #R0543) with the presence of 1x NBEuffer 3.1, the restriction enzyme digestion was conducted in a thermomixer overnight at 37 °C. The restriction enzyme was then heat inactivated by incubating at 65 °C for 20 minutes. Then the digested chromatin was re-ligated by adding 900 μl Ligation Master Mix (1.3x NEB T4 Ligase Buffer, 1.1% X-100, 0.05% BSA and 2 U/μl T4 ligase) and incubated overnight at 16 °C with constant rotation. […] The 3C DNA was then purified with phenol-chloroform, precipitated and washed in 70% ethanol, and resuspend in Elution Buffer (1 mM Tris-HCl pH 8.0, 0.1 mM EDTA) and quantified with Nanodrop. […] Library concentration was measured with Qubit sdDNA HS Assay Kit and further qualified with Tapestation. […] After sequencing quality control with FastQC and trimming of adaptor sequence with Trim Galore, reads were processed in accordance with the Umi4C pipeline.
# [8] = tested on: ERα, YAP/TAZ phosphorylation in MCF-7 cells; assay: Immunoblot analysis, MCF-7 cells; type: cell-based, human; conditions: WT or LATS1/2 dKO MCF-7; 1 µM of VT-107 for 2 days; Supplementary Fig. 4k
# [9] = target: T1, TEAD-VGLL3-NCOR2 complex (Homo sapiens, UniProt Q15562); assay: TEAD2 co-immunoprecipitation with NCOR2 / VGLL3; type: cell-based; conditions: MCF7 transfected cells; Fig. 2n
# T1 construct: expressed in transfected cells; host or cells: MCF-7
# Experimental: For immunoprecipitations, cells were rinsed with ice-cold DPBS and then lysed in mild lysis buffer (150 mM NaCl, 50 mM Tris-Cl pH7.5, 0.5% Triton X-100) with protease inhibitors (Roche, #11873580001) and phosphatase inhibitors (Thermo Scientific, #88667) on ice for 30 min and centrifuged at 12,000 rpm for 10 min. Primary antibodies and Protein A/G magnetic beads (Pierce, #88803) were added to the supernatants and incubated with rotation for 3 h at 4 °C. Immunoprecipitants were washed four times with lysis buffer and were denatured by SDS-PAGE sample buffer and boiled for 5 min.
# T1 sequence (Q15562 whole entry, one chain of several): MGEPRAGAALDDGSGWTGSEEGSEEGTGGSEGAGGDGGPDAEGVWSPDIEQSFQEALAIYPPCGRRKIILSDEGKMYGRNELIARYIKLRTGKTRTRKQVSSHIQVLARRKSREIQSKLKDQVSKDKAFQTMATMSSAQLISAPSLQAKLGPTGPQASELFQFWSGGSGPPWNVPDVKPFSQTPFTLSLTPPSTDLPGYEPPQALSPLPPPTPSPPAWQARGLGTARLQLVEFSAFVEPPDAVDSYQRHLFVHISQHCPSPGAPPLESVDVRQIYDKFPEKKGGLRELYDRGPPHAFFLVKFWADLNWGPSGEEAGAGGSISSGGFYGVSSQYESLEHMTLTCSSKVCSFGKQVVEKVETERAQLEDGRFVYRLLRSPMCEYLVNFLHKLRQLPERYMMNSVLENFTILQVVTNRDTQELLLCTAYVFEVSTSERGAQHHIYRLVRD
compound,measurement,setting,value
"CC/C(=C(\c1ccc(O)cc1)c1ccc(OCCN(C)C)cc1)c1ccccc1 [4OHT, 4-Hydroxytamoxifen, reference compound]",Fold change of cell proliferation,[1]; MCF-7 ERα-Y537S knock-in + ctrl,1.082 and 1.041 and 1.122
same,Fold change of cell proliferation,[1]; MCF-7 ERα-Y537S knock-in + sgLATS1/2,0.2796 and 0.349 and 0.2955
same,Fold change of cell proliferation,[1]; MCF-7 wt + ctrl,0.5306 and 0.5714 and 0.5918
same,Fold change of cell proliferation,[1]; MCF-7 wt + sgLATS1/2,0.2041 and 0.1918 and 0.1796
same,Relative colony formation,[2]; MCF-7 ERa D538G knock-in,0.71 and 0.61 and 0.66
same,Relative colony formation,[2]; MCF-7 ERa Y537S knock-in,0.79 and 0.83 and 0.77
same,Relative colony formation,[2]; MCF-7 WT,0.38 and 0.41 and 0.34
same,Relative colony formation,[3]; T47D ERa Y537S knock-in,0.79 and 0.83 and 0.77
same,Relative colony formation,[3]; T47D WT,0.41 and 0.38 and 0.44
"C[C@]12CC[C@@H]3c4ccc(O)cc4CC[C@H]3[C@@H]1CC[C@@H]2O [E2, 17β-estradiol, reference compound]",GREB1 Rel. expression (BTO-02),[4],4.976 and 4.601 and 4.355
same,TFF1 Rel. expression (BTO-02),[4],6.504 and 6.591 and 6.279
"Nc1ccccc1NC(=O)c1ccc(CNC(=O)OCc2cccnc2)cc1 [Entinostat, reference compound]",Cell proliferation (cell counting),[1]; VGLL3 KO MCF-7,10.42 and 9.55 and 11.21
same,Cell proliferation (cell counting),[1]; Wild-type MCF-7,4.59 and 3.87 and 4.88
same,ESR1 expression (qPCR),[5]; VGLL3 KO MCF-7,0.5015 and 0.486 and 0.4463
same,ESR1 expression (qPCR),[5]; Wild-type MCF-7,0.07832 and 0.08939 and 0.1138
"C[C@]12CC[C@@H]3c4ccc(O)cc4C[C@@H](CCCCCCCCC[S+]([O-])CCCC(F)(F)C(F)(F)F)[C@H]3[C@@H]1CC[C@@H]2O (stereo partly drawn) [Fulvestrant, reference compound]",Relative colony formation,[2]; MCF-7 ERa D538G knock-in,0.58 and 0.62 and 0.53
same,Relative colony formation,[2]; MCF-7 ERa Y537S knock-in,0.68 and 0.73 and 0.65
same,Relative colony formation,[2]; MCF-7 WT,0.31 and 0.26 and 0.32
same,Relative colony formation,[3]; T47D ERa Y537S knock-in,0.68 and 0.73 and 0.65
same,Relative colony formation,[3]; T47D WT,0.38 and 0.35 and 0.32
same,"Rel. growth (BTO-02, %)",[6],43.197% and 36.224% and 48.81%
"CC(=O)c1c(C)c2cnc(Nc3ccc(N4CCNCC4)cn3)nc2n(C2CCCC2)c1=O [Palbociclib, reference compound]","MCF-7 growth, palbociclib combined with LATS1/2 depletion","[1]; LATS1/2 deficient MCF-7, Palbociclib 0.1 or 0.3 µM for 7 days, Supplementary Fig. 8i",dramatically reduced MCF-7 growth
same,Rel. colony (colony-formation assay),"[2]; MCF-7, VT02956 (2 μM), VT02484 (2 μM) or Palbociclib (0.1 μM) alone or in combinations, Fig.6d",0.58 and 0.54 and 0.51
CC/C(=C(\c1ccccc1)c1ccc(OCCN(C)C)cc1)c1ccccc1 [Tamoxifen],"Rel. growth (BTO-02, %)",[6],55.442% and 49.15% and 52.381%
VT-107,Rel. Contact (3C-qPCR) between ESR1 promoter and super enhancer,[7],0.5958 and 0.5632 and 0.5017
same,ERα level (immunoblot),[8],ameliorated the ERα downregulation caused by LATS1/2 dKO
same,TEAD2 Co-IP with VGLL3 / NCOR2,[9],disrupted the interaction of TEAD with either VGLL3 or NCOR2
